Assays:
FGFR1 (h) = FGFR1 (h) (Homo sapiens, UniProt P11362); experiment: FGFR1 (enzymatic assay), TR-FRET; type: biochemical; conditions: read-out: FGFR 1 pIC50 (converted)
Protocol: (§1) In a final reaction volume of 30 μL, FGFR1 (h) (25 ng/ml) was incubated with 50 mM HEPES pH 7.5, 6 mM MnCl2, 1 mM DTT, 0.1 mM Na3VO4, 0.01% Triton-X-100, 500 nM Btn-Flt3 and 5 μM ATP in the presence of compound (1% DMSO final). […] Time-Resolved Fluorescence Resonance Energy Transfer (TR-FRET) signal (ex340 nm. Em 620 nm, em 655 nm) was measured afterwards and results are expressed in RFU (Relative Fluorescence Units).

FGFR4 (h) = FGFR4 (h) (Homo sapiens, UniProt P22455); experiment: FGFR4 (enzymatic assay), TR-FRET; type: biochemical; conditions: read-out: FGFR 4 pIC50 (converted)
Protocol: as §1, with “FGFR4” for “FGFR1”, “(60” for “(25”

KDR (h) (VEGFR2) = KDR (h) (VEGFR2) (Homo sapiens, UniProt P35968); experiment: KDR (VEGFR2) (enzymatic assay), TR-FRET; type: biochemical
How it was run: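 Low-ATP (3 μM) TR-FRET kinase assay using 500 nM Btn-Flt3 peptide and 150 ng/ml enzyme, run 2 h at room temperature with 6 mM MnCl2 and 0.1 mM Na3VO4. Signal from Eu-anti-P-Tyr/SA-XL-665 is recorded in RFU.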

[1] = target: Ba/F3-FGFR1-transfected cells (Homo sapiens, UniProt P11362); experiment: Ba/F3-FGFR1 (minus IL3) cellular proliferation assay, Alamar Blue; type: cell-based; conditions: for BAF3-FGFR 1 (MIN IL3) 96 well pIC50: minus IL3, 96 well; for BAF3-FGFR 1 (MIN IL3) 384 well pIC50: minus IL3, 384 well
How it was run: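 Proliferation is estimated from Alamar Blue fluorescence after cells grow for one day with test compound in 10% FBS medium at 37 °C, with 4 h dye incubation before reading.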

[2] = test system: Ba/F3-Flt3-transfected cells in the presence of 10 ng/ml murine IL3; experiment: Ba/F3-Flt3 (plus IL3) cellular proliferation counterscreen, Alamar Blue; type: cell-based; conditions: Mus musculus; plus 10 ng/ml murine IL3; read-out: BAF3-FLT3 (PLUS IL3) 384 well pIC50 (converted)

FGFR1 (h), sequence (P11362 22-822): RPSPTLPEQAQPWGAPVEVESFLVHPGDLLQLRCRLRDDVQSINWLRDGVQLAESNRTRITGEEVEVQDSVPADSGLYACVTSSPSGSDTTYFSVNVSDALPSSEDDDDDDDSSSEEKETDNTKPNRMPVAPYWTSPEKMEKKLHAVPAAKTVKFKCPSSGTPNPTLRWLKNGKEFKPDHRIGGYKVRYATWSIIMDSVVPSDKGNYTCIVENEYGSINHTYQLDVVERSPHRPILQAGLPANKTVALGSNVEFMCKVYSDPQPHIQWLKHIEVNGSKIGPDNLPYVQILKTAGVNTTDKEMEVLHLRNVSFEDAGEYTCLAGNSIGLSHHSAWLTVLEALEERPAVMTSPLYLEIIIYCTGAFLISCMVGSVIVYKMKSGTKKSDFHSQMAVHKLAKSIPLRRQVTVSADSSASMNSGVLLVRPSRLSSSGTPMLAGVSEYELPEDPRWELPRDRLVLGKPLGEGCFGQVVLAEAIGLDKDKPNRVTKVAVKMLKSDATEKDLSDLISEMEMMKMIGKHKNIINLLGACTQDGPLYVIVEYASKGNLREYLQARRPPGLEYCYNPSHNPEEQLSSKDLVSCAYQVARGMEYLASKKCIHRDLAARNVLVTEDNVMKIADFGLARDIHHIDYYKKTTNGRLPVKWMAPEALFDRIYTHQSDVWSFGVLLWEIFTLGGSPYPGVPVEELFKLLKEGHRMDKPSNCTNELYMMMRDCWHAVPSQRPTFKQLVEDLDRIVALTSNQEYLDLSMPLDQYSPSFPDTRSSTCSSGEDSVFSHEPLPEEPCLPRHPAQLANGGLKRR
Ba/F3-FGFR1-transfected cells, sequence (P11362 whole entry, change not shown): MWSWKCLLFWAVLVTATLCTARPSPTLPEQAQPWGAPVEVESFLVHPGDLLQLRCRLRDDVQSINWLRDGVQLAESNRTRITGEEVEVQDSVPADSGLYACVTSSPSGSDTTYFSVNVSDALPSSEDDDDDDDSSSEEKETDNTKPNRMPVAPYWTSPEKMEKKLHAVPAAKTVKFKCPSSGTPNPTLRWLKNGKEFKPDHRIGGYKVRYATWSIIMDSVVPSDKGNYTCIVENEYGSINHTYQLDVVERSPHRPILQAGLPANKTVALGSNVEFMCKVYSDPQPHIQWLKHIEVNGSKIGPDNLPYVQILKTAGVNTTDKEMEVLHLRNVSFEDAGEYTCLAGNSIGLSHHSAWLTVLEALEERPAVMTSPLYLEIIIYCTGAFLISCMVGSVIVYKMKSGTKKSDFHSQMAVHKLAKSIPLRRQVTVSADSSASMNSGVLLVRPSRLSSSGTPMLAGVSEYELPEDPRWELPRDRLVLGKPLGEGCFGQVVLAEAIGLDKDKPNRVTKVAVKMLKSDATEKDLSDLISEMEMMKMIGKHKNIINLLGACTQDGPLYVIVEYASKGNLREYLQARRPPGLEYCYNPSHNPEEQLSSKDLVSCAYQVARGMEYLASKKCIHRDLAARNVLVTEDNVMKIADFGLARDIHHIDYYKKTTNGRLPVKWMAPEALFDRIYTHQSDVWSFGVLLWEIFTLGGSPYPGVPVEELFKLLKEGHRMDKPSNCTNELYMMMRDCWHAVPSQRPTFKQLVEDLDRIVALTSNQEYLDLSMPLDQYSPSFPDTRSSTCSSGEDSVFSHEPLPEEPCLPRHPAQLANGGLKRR
FGFR4 (h), sequence (P22455 22-802): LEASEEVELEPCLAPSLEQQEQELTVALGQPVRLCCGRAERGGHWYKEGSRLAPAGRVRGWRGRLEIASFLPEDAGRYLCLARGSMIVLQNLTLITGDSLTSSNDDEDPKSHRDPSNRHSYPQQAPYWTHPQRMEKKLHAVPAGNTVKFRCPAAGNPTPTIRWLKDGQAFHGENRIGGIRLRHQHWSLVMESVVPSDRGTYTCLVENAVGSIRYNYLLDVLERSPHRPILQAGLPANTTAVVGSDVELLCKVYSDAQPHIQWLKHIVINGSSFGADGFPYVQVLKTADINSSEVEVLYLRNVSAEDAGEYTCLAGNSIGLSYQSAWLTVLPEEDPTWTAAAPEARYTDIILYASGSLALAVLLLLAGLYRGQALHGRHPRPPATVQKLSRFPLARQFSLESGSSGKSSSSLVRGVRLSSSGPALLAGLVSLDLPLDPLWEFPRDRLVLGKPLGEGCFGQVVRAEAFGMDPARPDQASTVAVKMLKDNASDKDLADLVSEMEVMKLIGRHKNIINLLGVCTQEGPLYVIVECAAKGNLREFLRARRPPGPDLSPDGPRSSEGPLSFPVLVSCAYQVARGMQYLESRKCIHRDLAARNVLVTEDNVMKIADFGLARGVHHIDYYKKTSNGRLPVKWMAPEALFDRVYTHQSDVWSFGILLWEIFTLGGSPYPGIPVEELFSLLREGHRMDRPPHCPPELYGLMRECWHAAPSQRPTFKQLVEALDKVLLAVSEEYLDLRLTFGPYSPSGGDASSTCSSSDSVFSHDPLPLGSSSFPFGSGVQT
KDR (h) (VEGFR2), sequence (P35968 20-1356): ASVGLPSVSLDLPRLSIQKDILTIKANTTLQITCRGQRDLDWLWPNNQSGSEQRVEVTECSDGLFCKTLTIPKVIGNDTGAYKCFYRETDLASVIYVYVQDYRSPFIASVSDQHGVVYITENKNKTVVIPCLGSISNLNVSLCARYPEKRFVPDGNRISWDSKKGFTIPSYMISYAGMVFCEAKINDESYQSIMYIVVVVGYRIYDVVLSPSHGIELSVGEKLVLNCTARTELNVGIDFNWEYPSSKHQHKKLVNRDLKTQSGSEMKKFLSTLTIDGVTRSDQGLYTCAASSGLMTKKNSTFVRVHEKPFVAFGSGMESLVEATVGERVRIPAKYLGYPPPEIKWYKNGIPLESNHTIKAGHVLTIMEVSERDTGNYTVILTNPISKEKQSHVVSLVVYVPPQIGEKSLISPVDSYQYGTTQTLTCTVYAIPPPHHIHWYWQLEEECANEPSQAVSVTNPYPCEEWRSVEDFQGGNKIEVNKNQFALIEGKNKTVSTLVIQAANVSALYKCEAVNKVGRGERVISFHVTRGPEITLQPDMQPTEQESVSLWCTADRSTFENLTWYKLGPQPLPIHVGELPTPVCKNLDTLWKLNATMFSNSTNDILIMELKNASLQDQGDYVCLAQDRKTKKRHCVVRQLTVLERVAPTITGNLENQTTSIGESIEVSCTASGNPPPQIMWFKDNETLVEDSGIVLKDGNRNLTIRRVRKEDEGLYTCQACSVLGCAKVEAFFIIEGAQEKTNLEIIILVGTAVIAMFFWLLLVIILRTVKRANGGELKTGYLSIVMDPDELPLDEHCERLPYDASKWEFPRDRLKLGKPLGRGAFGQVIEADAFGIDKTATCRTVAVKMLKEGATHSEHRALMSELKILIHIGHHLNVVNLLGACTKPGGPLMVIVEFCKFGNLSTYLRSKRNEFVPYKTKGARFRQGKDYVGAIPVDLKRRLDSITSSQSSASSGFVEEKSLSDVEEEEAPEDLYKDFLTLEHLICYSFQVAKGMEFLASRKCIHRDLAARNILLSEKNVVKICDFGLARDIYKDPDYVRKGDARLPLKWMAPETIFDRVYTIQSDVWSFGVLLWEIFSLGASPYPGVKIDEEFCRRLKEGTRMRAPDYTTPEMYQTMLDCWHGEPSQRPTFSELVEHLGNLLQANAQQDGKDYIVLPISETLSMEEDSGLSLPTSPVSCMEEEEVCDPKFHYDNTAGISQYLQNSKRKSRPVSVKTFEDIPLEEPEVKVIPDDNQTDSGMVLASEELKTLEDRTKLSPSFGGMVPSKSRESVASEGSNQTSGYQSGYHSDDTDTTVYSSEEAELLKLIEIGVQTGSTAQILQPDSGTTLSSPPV

Row | IC50 (FGFR1 (h)) | IC50 (FGFR4 (h)) | IC50 (KDR (h) (VEGFR2)) | BAF3-FGFR 1 (MIN IL3) 96 well pIC50 [1] | BAF3-FGFR 1 (MIN IL3) 384 well pIC50 [1] | SMILES | IC50 [2]
1 | 501 nM | > 1000 nM | > 1000 nM | 5.41 | 5.09 | COc1cc(OC)cc(N(CC2CC2)c2ccc3ncc(C#Cc4ccncc4)nc3c2)c1 [Compound 23] | > 10000 nM
2 | 20.4 nM | 191 nM | 832 nM | 5.42 | 5.39 | COc1cc(OC)cc(N(CC2CC2)c2ccc3ncc(-c4cn(CCN5CCOCC5)nn4)nc3c2)c1 [Compound 24] | > 10000 nM
3 | 468 nM | > 1000 nM | > 1000 nM |  | 5.05 | CNC(=O)c1cc(-c2cnc3ccc(N(CCN4CCCC4=O)c4cc(OC)cc(OC)c4)cc3n2)ccn1 [Compound 25] | > 10000 nM
4 | 51.3 nM | 214 nM | 501 nM | 5.03 | 5.32 | COc1cc(OC)cc(N(CC2CC2)c2ccc3ncc(-n4cnc(C)c4)nc3c2)c1 [Compound 30] | > 10000 nM
5 | 933 nM | 776 nM | > 1000 nM | <5 | <5 | COc1cc(OC)cc(N(CC2CC2)c2ccc3ncc(-n4ccc(C)n4)nc3c2)c1 [Compound 31] | > 10000 nM
6 | 417 nM | > 1000 nM | > 1000 nM | <5 | <5 | COc1cc(OC)cc(N(CC2CC2)c2ccc3ncc(-n4ccnc4C)nc3c2)c1 [Compound 32] | > 10000 nM
7 | 12.6 nM | 115 nM | 575 nM |  | 5.1 | COc1cc(OC)cc(N(CCCO)c2ccc3ncc(-c4ccnc(C(=O)NCCCN)c4)nc3c2)c1 [Compound 33] | > 10000 nM
8 | 77.6 nM | 302 nM | 398 nM | 5.4 | 5.24 | COc1cc(OC)cc(N(CC2CC2)c2ccc3ncc(-c4cn(CCO)nn4)nc3c2)c1 [Compound 40] | > 10000 nM
9 | 57.5 nM | 79.4 nM | 3310 nM | <5 | <5 | COc1cc(OC)cc(N(CC2CC2)c2ccc3ncc(-c4nnn[nH]4)nc3c2)c1 [Compound 41] | > 10000 nM
10 | 2.45 nM | 15.5 nM | 110 nM |  | 6.92 | COc1cc(OC)cc(N(CCCO)c2ccc3ncc(-c4ccc(N5CCNCC5)nc4)nc3c2)c1 [Compound 48] | 4170 nM
11 | 759 nM | > 1000 nM | > 1000 nM | <5 | <5 | COc1cc(OC)cc(N(CC2CC2)c2ccc3ncc(-n4cncn4)nc3c2)c1 [Compound 50] | > 10000 nM
12 | 3.72 nM | 69.2 nM | 309 nM |  | 5.88 | COc1cc(OC)cc(N(Cc2cccc(CN)n2)c2ccc3ncc(-c4ccc(N)nc4)nc3c2)c1 [Compound 51] | ~7080 nM
13 | 37.2 nM | 275 nM | 912 nM | 5.37 | <5 | COc1cc(OC)cc(N(CC2CC2)c2ccc3ncc(-c4cnco4)nc3c2)c1 [Compound 55] | > 10000 nM
14 | 135 nM | 550 nM | > 1000 nM | <5 |  | COc1cc(OC)cc(N(CC2CC2)c2ccc3ncc(-c4ccn[nH]4)nc3c2)c1 [Compound 58] | 8320 nM
15 | 575 nM | 1120 nM | > 10000 nM | <5 | <5 | COc1cc(OC)cc(N(CC2CC2)c2ccc3ncc(-c4nccn4C)nc3c2)c1 [Compound 60] | > 10000 nM
16 | > 1000 nM | > 1000 nM | > 1000 nM | <5 | <5 | COc1cc(OC)cc(N(CC2CC2)c2ccc3ncc(-n4nccc4C)nc3c2)c1 [Compound 62] | > 10000 nM
17 | > 1000 nM | > 1000 nM | > 1000 nM | <5 | <5 | CCOC(=O)c1ncn(-c2cnc3ccc(N(CC4CC4)c4cc(OC)cc(OC)c4)cc3n2)c1C [Compound 65] | > 10000 nM
18 | 3.09 nM | 13.2 nM | 75.9 nM |  | 7.16 | COc1cc(OC)cc(N(CCCO)c2ccc3ncc(-c4ccnc(N)c4)nc3c2)c1 [Compound 66] | > 10000 nM
19 | 79.4 nM | 251 nM | > 1000 nM | 5.22 | 5.01 | COc1cc(OC)cc(N(CC2CC2)c2ccc3ncc(-c4cn[nH]n4)nc3c2)c1 [Compound 69] | > 10000 nM
20 | 537 nM | > 1000 nM | > 1000 nM | 5.23 | 5.18 | COc1cc(OC)cc(N(CC2CC2)c2ccc3ncc(-c4cnnn4C)nc3c2)c1 [Compound 72] | > 10000 nM
21 | 7.24 nM | 26.9 nM | 309 nM |  | 6.62 | COc1cc(OC)cc(N(CC(O)CO)c2ccc3ncc(-c4ccc(N)nc4)nc3c2)c1 (centres unmarked) [Compound 74] | > 10000 nM
22 | 398 nM | > 1000 nM | > 1000 nM |  | 5.08 | CNC(=O)OCCN(c1cc(OC)cc(OC)c1)c1ccc2ncc(-c3ccc(NC(=O)OC(C)(C)C)nc3)nc2c1 [Compound 80] | > 10000 nM
23 | > 1000 nM | > 1000 nM | > 1000 nM | <5 | <5 | COc1cc(OC)cc(N(CC2CC2)c2ccc3ncc(-c4nnnn4C)nc3c2)c1 [Compound 83] | > 10000 nM
24 | 389 nM | 575 nM | > 1000 nM |  | <5 | COc1cc(OC)cc(N(CC2CC2)c2ccc3ncc(-c4ocnc4C)nc3c2)c1 [Compound 104] | > 10000 nM
25 | 27.5 nM | 145 nM | 275 nM |  | 6.25 | COc1cc(OC)cc(N(CC2CO2)c2ccc3ncc(-c4ccc(N)nc4)nc3c2)c1 (centres unmarked) [Compound 110] | > 10000 nM
26 | 26.3 nM | 70.8 nM | 741 nM |  | 5.65 | COc1cc(OC)cc(N(CCO)c2ccc3ncc(-c4ccc(OC)nc4)nc3c2)c1 [Compound 111] | > 10000 nM
27 | 18.6 nM | 58.9 nM | 468 nM |  | 6.11 | COc1cc(OC)cc(N(CCCO)c2ccc3ncc(-c4cccnc4)nc3c2)c1 [Compound 112] | > 10000 nM
28 | 7.24 nM | 17.8 nM | 135 nM |  | 5.9 | CNc1ccc(-c2cnc3ccc(N(CCCO)c4cc(OC)cc(OC)c4)cc3n2)cn1 [Compound 116] | > 10000 nM
